pIC50: −log10 of the molar value. Where two headings read alike, the source gives them in different places.
How the values were obtained:
Jurkat = assay: MTS proliferation assay, Jurkat; type: cell-based, human; settings: 72 h incubation, read-out: MTS proliferation assay IC 50 Jurkat
Protocol: (§1) Cell lines are cultured in RPMI-1640 tissue culture medium containing either 5% or 10% fetal calf serum, 0.05 mM 2-mercaptoethanol, 2 mM glutamine and penicillin/streptomycin 50 μg/ml (complete medium) (Sigma, Buchs, Switzerland). General growth conditions are 37° C. and 7.5% CO2.
(§2) The following human cell lines (either EGFP transfected or not) are being used: HeLa (ATCC: CCL-2), KB (ATCC: CCL-17), MCF7 (ATCC: HTB-22), SK-BR-3 (ATCC: HTB-30), SK-Mel 1 (ATCC: HTB-67), SK-Mel 28 (ATCC: HTB-72), PC-3 (ATCC: CRL-1435), SW 480 (ATCC: CCL-228), NCl-H460 (ATCC: HTB-177), NCl-H1792 (ATCC: CRL-5895), HT1080 (ATCC: CCL-21), Jurkat (ATCC: TIB-152), Ramos (ATCC: CRL-1596), Raji (ATCC: CCL-86), H9 (ATCC: HTB-176), Hut78 (ATCC: TIB-161), K562 (ATCC: CCL 243), HL-60 (ATCC: CCL 240), U-87MG (ATCC: HTB-14), HepG2 (ATCC: HB-8065), U-2 OS (ATCC: HTB-96), Saos-2 (ATCC: HTB-85), U937 (ATCC: CRL 1593), Hs 578T (ATCC: HTB 126), HBL-100 (ATCC: HTB 124), Molt-4 (ATCC: CRL 1582).
(§3) The assay is performed in 96 well tissue culture plates. The cells (range: 1.5*10^3-10^4) are seeded out in 80 μl complete medium 24 h prior to compound treatment. The test compounds are added in 20 μl complete medium containing max 5% DMSO. The final compound concentrations in the assays are 10 μM, 3 μM, 1 μM and 0.3 μM, respectively. The assay plates are incubated for 72 h at culture conditions. The MTS reagent is prepared according to the manufacturer's protocol (Promega G1111). 20 μl MTS reagent are added to each well, the assay plates are quickly spun and incubated for another 3 h at culture conditions. Subsequently, the plates are shortly shaked and absorption measured with a microplate-reader at 492 nm.

HeLa = assay: MTS proliferation assay, HeLa; type: cell-based, human; settings: 72 h incubation, read-out: MTS proliferation assay IC 50 HeLa
Protocol: as §1, §2, §3

[1] = system: adherent cells or suspension cells; assay: Hoechst 33342 nuclear staining (fraction of apoptotic nuclei); type: cell-based; parameters: key: 0 relating to no activity; 1 relating to weak activity comprising less than 70% of the cells; score 2 relating to strong activity comprising more than 70% of the cells
Protocol: as §1
This assay is performed in 96 well tissue culture plates. Appropriate number of cells (adherent cells: 3-5*10^3, suspension cells: 8-10*10^3) are being seeded out in 80 μl complete medium. Adherent cells are incubated for 24 h for proper spreading out before addition of test compounds while suspension cells are immediately treated with test compounds after seeding out. The test compounds are added in 20 μl complete medium containing max 5% DMSO. […] After 24 h or 48 h incubation at culture conditions, 10 μl medium containing Hoechst 33342 dye (Sigma B-2261) at 2-5 μg/ml are added to each well. The assay plates are then further incubated for 30 minutes and subsequently analyzed with a standard inverted fluorescence microscope.
The readout allows the determination of the fraction of apoptotic nuclei as well as other morphological criteria specific for apoptosis as a function of the treatment. The following scores are used: 0 relating to no activity, 1 relating to weak activity comprising less than 70% of the cells and score 2 relating to strong activity comprising more than 70% of the cells.

MRC5 = assay: MTS proliferation assay, MRC5; type: cell-based; settings: MRC5, 72 h incubation, read-out: MTS proliferation assay IC 50 MRC5
Protocol: as §1, §3

Row | pIC50 (Jurkat) | pIC50 (HeLa) | Compound | Hoechst 33342 nuclear staining score ([1]; H460, conc 0.01 μm) | Hoechst 33342 nuclear staining score ([1]; H460, conc 0.1 μm) | Hoechst 33342 nuclear staining score ([1]; H460, conc 1 μm) | Hoechst 33342 nuclear staining score ([1]; HeLa, conc 0.01 μm) | Hoechst 33342 nuclear staining score ([1]; HeLa, conc 0.1 μm) | Hoechst 33342 nuclear staining score ([1]; HeLa, conc 1 μm) | Hoechst 33342 nuclear staining score ([1]; Jily, conc 0.01 μm) | Hoechst 33342 nuclear staining score ([1]; Jily, conc 0.1 μm) | Hoechst 33342 nuclear staining score ([1]; Jurkat, conc 0.01 μm) | Hoechst 33342 nuclear staining score ([1]; Jurkat, conc 0.1 μm) | Hoechst 33342 nuclear staining score ([1]; Jurkat, conc 1 μm) | Hoechst 33342 nuclear staining score ([1]; MRC5, conc 0.01 μm) | Hoechst 33342 nuclear staining score ([1]; MRC5, conc 0.1 μm) | Hoechst 33342 nuclear staining score ([1]; MRC5, conc 1 μm) | Hoechst 33342 nuclear staining score ([1]; PBLs, conc 0.01 μm) | Hoechst 33342 nuclear staining score ([1]; PBLs, conc 0.1 μm) | Hoechst 33342 nuclear staining score ([1]; PBLs, conc 1 μm) | pIC50 (MRC5) | also measured
1 | < 6.00 | < 6.00 | Nc1nonc1-c1nc2ccccc2n1CC(=NO)c1ccccc1 (mixture of isomers) [Example 17] | 0 | 0 | 0 | 0 | 0 | 0 | 0 | 0 | 0 | 0 | 0 | 0 | 0 | 0 | 0 | 0 | 0 | – | Hoechst 33342 nuclear staining score ([1]; Jily, conc 1 μm): 0
2 | 6.00 to 7.00 | < 6.00 | CON=C(Cn1c(-c2nonc2N)nc2ccccc21)c1ccccc1 (mixture of isomers) [Example 18] | 0 | 0 | 1 (1 relating to weak activity comprising less than 70% of the cells) | 0 | 0 | 2 (score 2 relating to strong activity comprising more than 70% of the cells) | – | – | 0 | 0 | 2 (score 2 relating to strong activity comprising more than 70% of the cells) | 0 | 0 | 1 (1 relating to weak activity comprising less than 70% of the cells) | 0 | 0 | 0 | 6.00 to 7.00 | –
3 | 6.00 to 7.00 | < 6.00 | COc1ccc(C(Cn2c(-c3nonc3N)nc3ccccc32)=NO)cc1 (mixture of isomers) [Example 20] | 0 | 0 | 0 | 0 | 0 | 0 | – | – | 0 | 0 | 0 | 0 | 0 | 0 | 0 | 0 | 0 | < 6.00 | –
4 | < 6.00 | < 6.00 | Nc1nonc1-c1nc2ccccc2n1CC(=NO)c1ccc(Cl)cc1 (mixture of isomers) [Example 21] | 0 | 0 | 0 | 0 | 0 | 0 | – | – | 0 | 0 | 0 | 0 | 0 | 0 | 0 | 0 | 0 | < 6.00 | –
5 | 6.00 to 7.00 | 6.00 to 7.00 | CON=C(Cn1c(-c2nonc2N)nc2ccccc21)c1ccc(Cl)cc1 (mixture of isomers) [Example 22] | 0 | 0 | 0 | 0 | 0 | 2 (score 2 relating to strong activity comprising more than 70% of the cells) | – | – | 0 | 0 | 2 (score 2 relating to strong activity comprising more than 70% of the cells) | 0 | 0 | 0 | 0 | 0 | 0 | 6.00 to 7.00 | –
6 | < 6.00 | < 6.00 | COc1cccc(C(Cn2c(-c3nonc3N)nc3ccccc32)=NO)c1 (mixture of isomers) [Example 24] | 0 | 0 | 0 | 0 | 0 | 0 | 0 | 0 | 0 | 0 | 0 | 0 | 0 | 0 | 0 | 0 | 0 | < 6.00 | Hoechst 33342 nuclear staining score ([1]; Jily, conc 1 μm): 0
7 | 6.00 to 7.00 | < 6.00 | CON=C(Cn1c(-c2nonc2N)nc2ccccc21)c1cccc(OC)c1 (mixture of isomers) [Example 25] | 0 | 0 | 0 | 0 | 0 | 0 | 0 | 0 | 0 | 0 | 1 (1 relating to weak activity comprising less than 70% of the cells) | 0 | 0 | 0 | 0 | 0 | 0 | < 6.00 | Hoechst 33342 nuclear staining score ([1]; Jily, conc 1 μm): 0
8 | – | – | CNc1nonc1-c1nc2ccccc2n1CC(=O)c1ccc(Cl)cc1 [Example 3, Methyl-{4-[1-(4-chlorophenacyl)-1H-benzimidazol-2-yl]-furazan-3-yl}-amine] | – | – | – | 0 | 0 | 0 | – | – | 0 | 0 | 0 | 0 | 0 | 0 | 0 | 0 | 0 | – | pIC50 (Jurkat; Homo sapiens): 6.00 to 7.00; pIC50 (MRC5; Homo sapiens): < 6.00

Source: patent USRE42890E1, “Furazanobenzimidazoles” (Basilea Pharmaceutica AG, priority 2003, dated 2011)
